According to ChEMBL document CHEMBL1201862, “PubChem BioAssay data set” (2004):
Values belong to the molecule of their own block, whether it stands above or below them. Activity calls are given as the source filed them.

How the values were obtained:
Ephrin type-A receptor 2 = Ephrin type-A receptor 2 (Homo sapiens, UniProt P29317); assay type: functional;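 note: EPHA2 tested as one member of a kinome-wide kinase panel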
[1] = target: Dual specificity mitogen-activated protein kinase kinase 2 (Homo sapiens, UniProt P36507); test: Navigating the Kinome. Panel member name: MAP2K2; assay type: functional
Chain of Dual specificity mitogen-activated protein kinase kinase 2 (P36507 whole entry): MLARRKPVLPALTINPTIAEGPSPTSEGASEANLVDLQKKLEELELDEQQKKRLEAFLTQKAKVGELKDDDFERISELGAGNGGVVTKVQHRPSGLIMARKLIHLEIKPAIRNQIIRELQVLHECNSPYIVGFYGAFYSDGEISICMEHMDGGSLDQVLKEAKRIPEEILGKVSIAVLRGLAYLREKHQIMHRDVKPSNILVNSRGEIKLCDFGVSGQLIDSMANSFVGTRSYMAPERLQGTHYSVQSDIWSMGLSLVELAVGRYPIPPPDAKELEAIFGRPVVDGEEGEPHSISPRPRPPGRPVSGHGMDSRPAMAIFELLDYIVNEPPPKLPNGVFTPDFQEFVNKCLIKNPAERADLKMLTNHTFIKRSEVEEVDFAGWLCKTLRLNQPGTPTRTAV

[2] = target: RAC-gamma serine/threonine-protein kinase (Homo sapiens, UniProt Q9Y243); assay type: functional
[3] = target: Protein kinase C zeta type (Homo sapiens, UniProt Q05513); assay type: functional;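 note: measured as one member of a broad kinase profiling panel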
[4] = target: Protein kinase C iota type (Homo sapiens, UniProt P41743); assay type: functional;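 note: measured within a kinome-wide kinase panel, PRKCI as panel member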
[5] = target: Death-associated protein kinase 3 (Homo sapiens, UniProt O43293); assay type: functional;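 note: measured as one member of a kinome-wide profiling panel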
[6] = target: Fibroblast growth factor receptor 1 (Homo sapiens, UniProt P11362); assay type: functional
[7] = target: Tyrosine-protein kinase JAK2 (Homo sapiens, UniProt O60674); assay type: functional;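 note: JAK2 tested as one member of a kinase panel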
Chain of Tyrosine-protein kinase JAK2 (O60674 whole entry): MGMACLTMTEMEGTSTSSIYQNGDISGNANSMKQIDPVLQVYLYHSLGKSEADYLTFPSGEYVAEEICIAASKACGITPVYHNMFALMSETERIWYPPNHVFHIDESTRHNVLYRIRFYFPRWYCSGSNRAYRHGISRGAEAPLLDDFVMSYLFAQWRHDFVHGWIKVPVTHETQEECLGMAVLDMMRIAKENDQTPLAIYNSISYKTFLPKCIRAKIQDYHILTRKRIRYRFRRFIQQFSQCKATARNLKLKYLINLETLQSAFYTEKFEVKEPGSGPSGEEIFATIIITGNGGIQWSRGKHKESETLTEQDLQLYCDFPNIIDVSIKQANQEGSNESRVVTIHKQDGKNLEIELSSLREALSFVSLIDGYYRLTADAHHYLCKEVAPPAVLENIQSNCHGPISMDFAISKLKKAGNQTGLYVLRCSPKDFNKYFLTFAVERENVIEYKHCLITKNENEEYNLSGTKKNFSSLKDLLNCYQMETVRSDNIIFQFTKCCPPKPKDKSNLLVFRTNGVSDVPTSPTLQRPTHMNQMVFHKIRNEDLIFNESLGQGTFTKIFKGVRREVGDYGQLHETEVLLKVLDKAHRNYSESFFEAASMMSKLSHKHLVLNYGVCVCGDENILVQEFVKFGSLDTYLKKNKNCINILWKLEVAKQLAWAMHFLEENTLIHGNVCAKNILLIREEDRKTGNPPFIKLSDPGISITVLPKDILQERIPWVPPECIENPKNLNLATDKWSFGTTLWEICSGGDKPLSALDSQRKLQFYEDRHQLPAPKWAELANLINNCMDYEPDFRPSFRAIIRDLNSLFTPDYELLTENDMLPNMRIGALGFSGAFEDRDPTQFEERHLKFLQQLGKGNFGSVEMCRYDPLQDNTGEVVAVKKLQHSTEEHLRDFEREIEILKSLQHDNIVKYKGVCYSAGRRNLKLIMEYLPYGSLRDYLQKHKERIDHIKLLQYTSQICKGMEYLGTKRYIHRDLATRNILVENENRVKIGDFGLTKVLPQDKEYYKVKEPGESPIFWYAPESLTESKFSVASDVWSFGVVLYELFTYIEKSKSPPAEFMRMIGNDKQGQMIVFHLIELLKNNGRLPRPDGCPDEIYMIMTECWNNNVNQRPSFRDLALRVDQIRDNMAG

[8] = target: Testis-specific serine/threonine-protein kinase 1 (Homo sapiens, UniProt Q9BXA7); assay type: functional
[9] = target: Homeodomain-interacting protein kinase 4 (Homo sapiens, UniProt Q8NE63); assay type: functional
[10] = target: Casein kinase II subunit alpha (Homo sapiens, UniProt P68400); assay type: functional
Activated CDC42 kinase 1 = Activated CDC42 kinase 1 (Homo sapiens, UniProt Q07912); test: Navigating the Kinome. Panel member name: ACK1; assay type: functional
[11] = target: Mitogen-activated protein kinase 13 (Homo sapiens, UniProt O15264); assay type: functional
[12] = target: RAC-alpha serine/threonine-protein kinase (Homo sapiens, UniProt P31749); assay type: functional;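 note: AKT1 affinity measured as one member of a kinome-wide kinase profiling panel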
[13] = target: Tyrosine-protein kinase Fyn (Homo sapiens, UniProt P06241); assay type: functional
Chain of Tyrosine-protein kinase Fyn (P06241 whole entry): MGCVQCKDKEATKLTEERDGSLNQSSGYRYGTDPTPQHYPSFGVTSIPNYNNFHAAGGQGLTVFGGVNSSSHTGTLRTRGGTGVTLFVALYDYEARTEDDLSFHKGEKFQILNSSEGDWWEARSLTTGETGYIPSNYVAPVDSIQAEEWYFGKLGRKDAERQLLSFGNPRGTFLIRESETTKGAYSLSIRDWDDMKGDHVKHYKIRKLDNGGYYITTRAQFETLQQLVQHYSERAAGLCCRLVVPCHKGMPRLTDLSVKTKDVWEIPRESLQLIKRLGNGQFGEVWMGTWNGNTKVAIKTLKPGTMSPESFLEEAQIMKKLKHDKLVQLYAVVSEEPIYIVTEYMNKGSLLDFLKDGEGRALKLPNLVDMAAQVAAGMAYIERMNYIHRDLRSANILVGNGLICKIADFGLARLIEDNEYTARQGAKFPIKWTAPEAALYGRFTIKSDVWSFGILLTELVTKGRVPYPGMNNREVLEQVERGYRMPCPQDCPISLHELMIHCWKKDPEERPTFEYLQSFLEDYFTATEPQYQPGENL

[14] = target: 3-phosphoinositide-dependent protein kinase 1 (Homo sapiens, UniProt O15530); assay type: functional;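 note: value comes from the Navigating the Kinome panel, PDPK1 member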
Chain of 3-phosphoinositide-dependent protein kinase 1 (O15530 whole entry): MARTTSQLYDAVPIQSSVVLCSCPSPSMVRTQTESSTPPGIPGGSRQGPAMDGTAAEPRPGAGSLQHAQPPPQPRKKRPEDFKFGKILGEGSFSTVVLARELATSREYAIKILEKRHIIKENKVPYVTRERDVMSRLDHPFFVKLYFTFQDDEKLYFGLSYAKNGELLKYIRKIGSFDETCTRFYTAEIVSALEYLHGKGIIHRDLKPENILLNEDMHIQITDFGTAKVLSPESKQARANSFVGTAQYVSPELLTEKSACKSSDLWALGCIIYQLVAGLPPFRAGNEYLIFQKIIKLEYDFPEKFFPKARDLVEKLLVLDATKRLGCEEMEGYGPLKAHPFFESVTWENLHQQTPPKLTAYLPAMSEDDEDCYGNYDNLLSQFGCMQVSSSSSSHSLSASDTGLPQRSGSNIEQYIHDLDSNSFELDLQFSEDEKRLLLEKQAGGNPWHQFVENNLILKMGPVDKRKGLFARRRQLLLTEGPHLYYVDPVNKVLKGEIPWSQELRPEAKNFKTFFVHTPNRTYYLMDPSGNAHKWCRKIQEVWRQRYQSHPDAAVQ

[15] = target: Serine/threonine-protein kinase MRCK alpha (Homo sapiens, UniProt Q5VT25); assay type: functional
Insulin receptor = Insulin receptor (Homo sapiens, UniProt P06213); assay type: functional;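 note: insulin receptor kinase tested as one member of a kinome-wide kinase panel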
[16] = target: cAMP-dependent protein kinase catalytic subunit PRKX (Homo sapiens, UniProt P51817); assay type: functional
[17] = target: cAMP-dependent protein kinase catalytic subunit alpha (Homo sapiens, UniProt P17612); assay type: functional
[18] = target: MAP/microtubule affinity-regulating kinase 3 (Homo sapiens, UniProt P27448); assay type: functional;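 note: MARK3 affinity measured as one member of a kinome panel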
[19] = target: Dual specificity tyrosine-phosphorylation-regulated kinase 3 (Homo sapiens, UniProt O43781); assay type: functional;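 note: measured as one member of a broad kinase panel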
[20] = target: Rho-associated protein kinase 2 (Homo sapiens, UniProt O75116); assay type: functional
Chain of Rho-associated protein kinase 2 (O75116 whole entry): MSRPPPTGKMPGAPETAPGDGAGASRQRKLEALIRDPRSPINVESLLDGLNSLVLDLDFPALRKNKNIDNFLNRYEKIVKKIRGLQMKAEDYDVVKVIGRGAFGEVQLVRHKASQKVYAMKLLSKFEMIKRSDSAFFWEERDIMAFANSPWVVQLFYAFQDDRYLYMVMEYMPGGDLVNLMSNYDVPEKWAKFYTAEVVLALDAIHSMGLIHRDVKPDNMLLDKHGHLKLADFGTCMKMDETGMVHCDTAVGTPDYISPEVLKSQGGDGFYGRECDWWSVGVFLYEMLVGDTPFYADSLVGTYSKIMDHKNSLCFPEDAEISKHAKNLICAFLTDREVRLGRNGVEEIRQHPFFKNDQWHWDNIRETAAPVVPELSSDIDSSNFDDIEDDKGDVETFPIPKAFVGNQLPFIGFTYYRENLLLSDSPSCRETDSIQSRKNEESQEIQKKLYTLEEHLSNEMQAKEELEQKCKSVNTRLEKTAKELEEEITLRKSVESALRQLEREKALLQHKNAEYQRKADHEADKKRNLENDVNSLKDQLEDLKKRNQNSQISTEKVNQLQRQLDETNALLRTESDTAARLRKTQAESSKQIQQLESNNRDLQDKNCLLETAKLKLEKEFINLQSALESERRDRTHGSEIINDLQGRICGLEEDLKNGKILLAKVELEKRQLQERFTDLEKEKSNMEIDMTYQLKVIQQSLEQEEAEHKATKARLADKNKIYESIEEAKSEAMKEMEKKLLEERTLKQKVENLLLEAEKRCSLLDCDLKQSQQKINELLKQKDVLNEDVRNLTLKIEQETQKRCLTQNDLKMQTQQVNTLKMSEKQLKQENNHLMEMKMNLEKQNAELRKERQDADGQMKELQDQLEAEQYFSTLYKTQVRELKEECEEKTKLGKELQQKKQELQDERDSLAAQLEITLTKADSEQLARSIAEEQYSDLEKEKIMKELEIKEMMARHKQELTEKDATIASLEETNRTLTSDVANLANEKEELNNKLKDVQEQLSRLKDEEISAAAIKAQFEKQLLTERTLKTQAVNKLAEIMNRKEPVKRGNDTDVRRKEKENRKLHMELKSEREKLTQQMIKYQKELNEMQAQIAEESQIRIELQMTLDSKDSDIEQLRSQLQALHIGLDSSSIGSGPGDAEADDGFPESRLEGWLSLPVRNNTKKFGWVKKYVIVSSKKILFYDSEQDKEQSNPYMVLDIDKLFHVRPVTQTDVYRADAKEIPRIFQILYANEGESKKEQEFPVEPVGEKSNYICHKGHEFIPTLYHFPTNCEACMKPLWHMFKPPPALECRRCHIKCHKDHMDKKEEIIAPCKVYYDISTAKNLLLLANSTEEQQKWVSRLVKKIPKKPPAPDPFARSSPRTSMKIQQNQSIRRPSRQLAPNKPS

[21] = target: Mitogen-activated protein kinase 9 (Homo sapiens, UniProt P45984); assay type: functional;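 note: value from a kinome panel profiling assay, MAPK9 panel entry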
[22] = target: Proto-oncogene tyrosine-protein kinase Src (Homo sapiens, UniProt P12931); assay type: functional;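 note: SRC entry within a kinome-wide kinase profiling panel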
[23] = target: Serine/threonine-protein kinase D3 (Homo sapiens, UniProt O94806); assay type: functional;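 note: determined within a kinase panel screen, with PRKCN as the panel member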
[24] = target: Calcium/calmodulin-dependent protein kinase type II subunit alpha (Homo sapiens, UniProt Q9UQM7); test: Navigating the Kinome. Panel member name: CAMK2A; assay type: functional
[25] = target: Casein kinase I isoform delta (Homo sapiens, UniProt P48730); assay type: functional;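 note: measured as one member (CSNK1D) of a kinome panel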
[26] = target: Receptor tyrosine-protein kinase erbB-4 (Homo sapiens, UniProt Q15303); assay type: functional;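 note: ERBB4 member of a kinome-wide kinase profiling panel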
[27] = target: Serine/threonine-protein kinase pim-1 (Homo sapiens, UniProt P11309); assay type: functional
[28] = target: Tyrosine-protein kinase Blk (Homo sapiens, UniProt P51451); assay type: functional;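 note: obtained as one member of a kinome-wide kinase assay panel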
Chain of Tyrosine-protein kinase Blk (P51451 whole entry, canonical isoform): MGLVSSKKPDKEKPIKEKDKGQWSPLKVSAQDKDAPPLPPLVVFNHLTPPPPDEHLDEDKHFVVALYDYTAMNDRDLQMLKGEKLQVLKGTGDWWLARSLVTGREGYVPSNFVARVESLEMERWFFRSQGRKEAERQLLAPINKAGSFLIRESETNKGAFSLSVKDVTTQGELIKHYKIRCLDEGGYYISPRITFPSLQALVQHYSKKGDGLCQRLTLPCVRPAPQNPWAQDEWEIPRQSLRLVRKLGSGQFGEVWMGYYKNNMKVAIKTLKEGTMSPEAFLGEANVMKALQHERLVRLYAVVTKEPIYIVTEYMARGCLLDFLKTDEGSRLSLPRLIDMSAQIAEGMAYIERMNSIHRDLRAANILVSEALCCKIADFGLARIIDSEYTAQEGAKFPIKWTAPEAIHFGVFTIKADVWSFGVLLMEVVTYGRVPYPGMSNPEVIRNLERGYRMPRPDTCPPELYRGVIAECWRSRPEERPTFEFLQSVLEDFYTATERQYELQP

[29] = target: Phosphorylase b kinase gamma catalytic chain, liver/testis isoform (Homo sapiens, UniProt P15735); assay type: functional;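 note: PHKG2 measured as one member of a kinome-wide kinase panel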
Chain of Phosphorylase b kinase gamma catalytic chain, liver/testis isoform (P15735 whole entry, canonical isoform): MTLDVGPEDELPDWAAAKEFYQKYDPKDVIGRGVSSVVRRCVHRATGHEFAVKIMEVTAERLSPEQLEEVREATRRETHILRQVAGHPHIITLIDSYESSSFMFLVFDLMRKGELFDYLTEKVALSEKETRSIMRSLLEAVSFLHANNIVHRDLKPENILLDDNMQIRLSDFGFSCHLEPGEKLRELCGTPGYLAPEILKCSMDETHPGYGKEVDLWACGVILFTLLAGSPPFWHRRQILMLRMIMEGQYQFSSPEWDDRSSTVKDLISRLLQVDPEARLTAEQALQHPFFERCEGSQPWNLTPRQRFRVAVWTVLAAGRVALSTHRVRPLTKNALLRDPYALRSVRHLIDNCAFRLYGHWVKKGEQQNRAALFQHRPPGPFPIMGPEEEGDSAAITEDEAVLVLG

[30] = target: Mitogen-activated protein kinase 12 (Homo sapiens, UniProt P53778); assay type: functional;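 note: measured as one member of a kinome-wide kinase profiling panel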
[31] = NIH3T3 cell viability loss – ATP luminescence, mouse fibroblasts, counter-screen, dose response (AID 2010); assay type: functional, cell-based;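 note: cells exposed to compound for about 90 hours before reading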
Caspase-6 = target: T1, Caspase-6 (Homo sapiens, UniProt P55212); test: inhibition of CASP6 peptide cleavage – biochemical, VEID-R110 fluorescence, cherry-pick, dose response (AID 720632)
T1 sequence (P55212 whole entry): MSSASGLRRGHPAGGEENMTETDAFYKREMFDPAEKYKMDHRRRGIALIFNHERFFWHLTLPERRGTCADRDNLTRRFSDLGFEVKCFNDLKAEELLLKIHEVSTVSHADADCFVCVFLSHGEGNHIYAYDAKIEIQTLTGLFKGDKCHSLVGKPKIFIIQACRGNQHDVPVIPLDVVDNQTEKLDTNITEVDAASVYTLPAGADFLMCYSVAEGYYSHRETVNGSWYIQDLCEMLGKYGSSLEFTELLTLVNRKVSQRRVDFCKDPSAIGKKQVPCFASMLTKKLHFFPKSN

SUMO-activating enzyme = SUMO-activating enzyme (Homo sapiens, UniProt Q9UBT2); test: blockers of UBC9-mediated SUMO conjugation – biochemical, AlphaScreen, SUMOylation inhibitor project, confirmation (AID 2018); assay type: functional
Caspase-3 = target: T2, Caspase-3 (Homo sapiens, UniProt P42574); test: SAR Analysis of small molecule inhibitors of Sentrin-specific proteases (SENPs) using a Caspase-3 Selectivity assay. [Related pubchem assays (depositor defined):AID2540, AID2599, AID434973, AID489001]; assay type: functional
T2 sequence (P42574 whole entry): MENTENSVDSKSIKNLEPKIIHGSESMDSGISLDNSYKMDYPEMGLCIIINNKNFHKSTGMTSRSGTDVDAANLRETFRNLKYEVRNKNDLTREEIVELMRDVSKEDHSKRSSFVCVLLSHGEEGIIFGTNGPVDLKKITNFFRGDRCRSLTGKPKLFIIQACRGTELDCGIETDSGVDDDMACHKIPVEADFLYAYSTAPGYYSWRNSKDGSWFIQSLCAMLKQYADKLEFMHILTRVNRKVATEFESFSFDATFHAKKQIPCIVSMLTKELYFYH

- Ki (Ephrin type-A receptor 2): > 3.16 µM (inactive)
- Ki [1]: > 2 µM (inactive)
- Ki [2]: 2.51 µM (active)
- Ki [3]: > 7.94 µM (inactive)
- Ki [4]: 3.98 µM (active)
- Ki [6]: > 3.98 µM (inactive)
- Ki [7]: > 1.58 µM (inactive)
- Ki [8]: > 1.58 µM (inactive)
- Ki [9]: > 7.94 µM (inactive)
- Ki [10]: > 6.31 µM (inactive)
- Ki (Activated CDC42 kinase 1): > 3.98 µM (inactive)
- Ki [11]: > 7.94 µM (inactive)
- Ki [12]: 1.26 µM (active)
- Ki [13]: > 3.98 µM (inactive)
- Ki [14]: 0.631 µM (active)
- Ki [15]: 3.98 µM (active)
- Ki (Insulin receptor): > 5.01 µM (inactive)
- Ki [16]: 0.501 µM (active)
- Ki [17]: 0.0794 µM (active)
- Ki [18]: > 5.01 µM (inactive)
- Ki [19]: > 6.31 µM (inactive)
- Ki [20]: 0.0251 µM (active)
- Ki [21]: > 3.98 µM (inactive)
- Ki [22]: > 2 µM (inactive)
- Ki [23]: 0.398 µM (active)
- Ki [24]: 3.98 µM (active)
- Ki [25]: > 7.94 µM (inactive)
- Ki [26]: > 3.98 µM (inactive)
- Ki [27]: > 6.31 µM (inactive)
- Ki [28]: > 1.58 µM (inactive)
- Ki [29]: > 5.01 µM (inactive)
- Ki [30]: > 6.31 µM (inactive)
SMILES: CC(N)C1CCC(C(=O)Nc2ccnc3[nH]ccc23)CC1 (configuration not stated)
- Ki [5]: > 1.26 µM (inactive)

SMILES: Cc1c(NC(=O)C(C)OC(=O)c2ccc([N+](=O)[O-])s2)c(=O)n(-c2ccccc2)n1C (configuration not stated)
- EC50 [31]: > 60 µM (not active)
- AC50 (Caspase-6): 4.82 µM (active)

SMILES: COc1cc(Br)c(C(=O)c2nccc3cc(OC)c(OC)cc23)cc1OC
- IC50 (SUMO-activating enzyme): 0.42 µM (active)
- IC50 (Caspase-3): 23.9 µM (active)
